System: MDA-231 cancer cells
Assay: Inhibition of proliferation assay, cell confluence (IncuCyte live cell imaging)
Type: cell-based
Settings: MDA-231 cells, concentration 10 uM; relative confluence normalised to time zero, images every 3 h over 4-5 d
Description: Inhibition of Proliferation Assay Cell Confluence The confluence value is a surrogate for cell proliferation and growth. The value is expressed as a percent confluence, which represents the fraction of culture dish-surface that is occupied by cells. As the number of cells in the dish increases over time due to proliferation, so will their coverage of that surface increase. Expansion of the cell population on the cell culture-dish surface and confluence have mostly a linear relationship until the cells on the plate surface begin to reach saturation or maximum density. Confluence is determined based on image analysis. Image based software can identify objects in the image field base on changes to pixel density in a grey scale image. The software can then assign a mask to those pixels within the object. Objects can be ‘gated’ out based on size and shape. To determine cell confluence, images of cells are first masked as objects. The surface area of the image that is masked is measured and compared to the total surface area of the culture dish surface to obtain a percent confluence. MDA-231 cancer cells were obtained from ATCC. Cells were cultured in Dulbecco's Modified Eagle Medium (DMEM) supplemented with 10% Fetal Bovine Serum (FBS), 2 mM Glutamax, 1 mM Non Essential Amino Acid (NEAA) solution and 1 mM sodium pyruvate. Compounds were dissolved in DMSO at 10 mM and diluted in cellular medium and tested at 10 μM (micromolar). Final DMSO concentrations were <0.1%. Images were acquired with an IncuCyte Live Cell Imaging microscopy (Essen Bioscience) at every 3 h under cell culture conditions with 10× objective over 4-5 d. Cell confluence was calculated from one field of view per well using the IncuCyte in-built algorithm. Relative confluence values were obtained by normalising each value to the time zero value in each sample.

Question: With `CC[C@H]1OC(=O)[C@H](C)[C@@H](O[C@H]2C[C@@](C)(OC)[C@@H](O)[C@H](C)O2)[C@H](C)[C@@H](O[C@@H]2O[C@H](C)C[C@H](N(C)C)[C@H]2O)[C@](C)(O)C[C@@H](C)CN(C(=O)CCCCCCCCCCCCC[P+](c2ccccc2)(c2ccccc2)c2ccccc2)[C@H](C)[C@@H](O)[C@]1(C)O` [Example 1, {14-[(2R,3S,4R,5R,8R,10R,11R,12S,13S,14R)-11-{[(2S,3R,4S,6R)-4-(dimethylamino)-3-hydroxy-6-methyloxan-2-yl]oxy}-2-ethyl-3,4,10-trihydroxy-13-{[(2R,4R,5S,6S)-5-hydroxy-4-methoxy-4,6-dimethyloxan-2-yl]oxy}-3,5,8,10,12,14-hexamethyl-15-oxo-1-oxa-6-azacyclopentadecan-6-yl]-14-oxotetradecyl}triphenylphosphonium hexafluorophosphate(V)] as the compound, how does the “% Confluence” value read?
Answer: The value was 4.2%.

Question: With `CC[C@H]1OC(=O)[C@H](C)[C@@H](O[C@H]2C[C@@](C)(OC)[C@@H](O)[C@H](C)O2)[C@H](C)[C@@H](O[C@@H]2O[C@H](C)C[C@H](N(C)C)[C@H]2O)[C@](C)(O)C[C@@H](C)CN(C(=O)CCCCCCCCC[P+](c2ccccc2)(c2ccccc2)c2ccccc2)[C@H](C)[C@@H](O)[C@]1(C)O` [Example 2, {10-[(2R,3S,4R,5R,8R,10R,11R,12S,13S,14R)-11-{[(2S,3R,4S,6R)-4-(dimethylamino)-3-hydroxy-6-methyloxan-2-yl]oxy}-2-ethyl-3,4,10-trihydroxy-13-{[(2R,4R,5S,6S)-5-hydroxy-4-methoxy-4,6-dimethyloxan-2-yl]oxy}-3,5,8,10,12,14-hexamethyl-15-oxo-1-oxa-6-azacyclopentadecan-6-yl]-10-oxodecyl}triphenylphosphonium hexafluorophosphate(V)] as the compound, how does the “% Confluence” value read?
Answer: Its value is 13.4%.

Question: With `CC[C@H]1OC(=O)[C@H](C)[C@@H](O[C@H]2C[C@@](C)(OC)[C@@H](O)[C@H](C)O2)[C@H](C)[C@@H](O[C@@H]2O[C@H](C)C[C@H](N(C)C)[C@H]2O)[C@](C)(O)C[C@@H](C)CN(C(=O)CCCCCCCC[P+](c2ccccc2)(c2ccccc2)c2ccccc2)[C@H](C)[C@@H](O)[C@]1(C)O` [Example 3, {9-[(2R,3S,4R,5R,8R,10R,11R,12S,13S,14R)-11-{[(2S,3R,4S,6R)-4-(dimethylamino)-3-hydroxy-6-methyloxan-2-yl]oxy}-2-ethyl-3,4,10-trihydroxy-13-{[(2R,4R,5S,6S)-5-hydroxy-4-methoxy-4,6-dimethyloxan-2-yl]oxy}-3,5,8,10,12,14-hexamethyl-15-oxo-1-oxa-6-azacyclopentadecan-6-yl]-9-oxononyl}triphenylphosphonium hexafluorophosphate(V)] as the compound, how does the “% Confluence” value read?
Answer: Its value is 98.4%.

Question: Which “% Confluence” value does the source give for `CC[C@H]1OC(=O)[C@H](C)[C@@H](O[C@H]2C[C@@](C)(OC)[C@@H](O)[C@H](C)O2)[C@H](C)[C@@H](O[C@@H]2O[C@H](C)C[C@H](N(C)C)[C@H]2O)[C@](C)(O)C[C@@H](C)CN(C(=O)CCCCCC[P+](c2ccccc2)(c2ccccc2)c2ccccc2)[C@H](C)[C@@H](O)[C@]1(C)O` [Example 4, {7-[(2R,3S,4R,5R,8R,10R,11R,12S,13S,14R)-11-{[(2S,3R,4S,6R)-4-(dimethylamino)-3-hydroxy-6-methyloxan-2-yl]oxy}-2-ethyl-3,4,10-trihydroxy-13-{[(2R,4R,5S,6S)-5-hydroxy-4-methoxy-4,6-dimethyloxan-2-yl]oxy}-3,5,8,10,12,14-hexamethyl-15-oxo-1-oxa-6-azacyclopentadecan-6-yl]-7-oxoheptyl}triphenylphosphonium hexafluorophosphate(V)] here?
Answer: The value was 89.9%.

Question: For `CC[C@H]1OC(=O)[C@H](C)[C@@H](O[C@H]2C[C@@](C)(OC)[C@@H](O)[C@H](C)O2)[C@H](C)[C@@H](O[C@@H]2O[C@H](C)C[C@H](N(C)C)[C@H]2O)[C@](C)(O)C[C@@H](C)CN(C(=O)CCCCCCCCCCC[P+](c2ccccc2)(c2ccccc2)c2ccccc2)[C@H](C)[C@@H](O)[C@]1(C)O` [Example 5, {12-[(2R,3S,4R,5R,8R,10R,11R,12S,13S,14R)-11-{[(2S,3R,4S,6R)-4-(dimethylamino)-3-hydroxy-6-methyloxan-2-yl]oxy}-2-ethyl-3,4,10-trihydroxy-13-{[(2R,4R,5S,6S)-5-hydroxy-4-methoxy-4,6-dimethyloxan-2-yl]oxy}-3,5,8,10,12,14-hexamethyl-15-oxo-1-oxa-6-azacyclopentadecan-6-yl]-12-oxododecyl}triphenylphosphonium hexafluorophosphate(V)], which “% Confluence” value is on record?
Answer: Its value is 5%.

Question: Which “% Confluence” value does the source give for `CC[C@H]1OC(=O)[C@H](C)[C@@H](O[C@H]2C[C@@](C)(OC)[C@@H](O)[C@H](C)O2)[C@H](C)[C@@H](O[C@@H]2O[C@H](C)C[C@H](N(C)C)[C@H]2O)[C@](C)(O)C[C@@H](C)CN(C(=O)CCCCC[PH](c2ccccc2)(c2ccccc2)c2ccccc2)[C@H](C)[C@@H](O)[C@]1(C)O` [Example 6, {6-[(2R,3S,4R,5R,8R,10R,11R,12S,13S,14R)-11-{[(2S,3R,4S,6R)-4-(dimethylamino)-3-hydroxy-6-methyloxan-2-yl]oxy}-2-ethyl-3,4,10-trihydroxy-13-{[(2R,4R,5S,6S)-5-hydroxy-4-methoxy-4,6-dimethyloxan-2-yl]oxy}-3,5,8,10,12,14-hexamethyl-15-oxo-1-oxa-6-azacyclopentadecan-6-yl]-6-oxohexyl}triphenylphosphonium hexafluorophosphate(V)] here?
Answer: Its value is 118.9%.

Question: For `CC[C@H]1OC(=O)[C@H](C)[C@@H](O[C@H]2C[C@@](C)(OC)[C@@H](O)[C@H](C)O2)[C@H](C)[C@@H](O[C@@H]2O[C@H](C)C[C@H](N(C)C)[C@H]2O)[C@](C)(O)C[C@@H](C)CN(CCCCCCCC[P+](c2ccccc2)(c2ccccc2)c2ccccc2)[C@H](C)[C@@H](O)[C@]1(C)O.[I-]` [Example 7, {8-[(2R,3S,4R,5R,8R,10R,11R,12S,13S,14R)-11-{[(2S,3R,4S,6R)-4-(dimethylamino)-3-hydroxy-6-methyloxan-2-yl]oxy}-2-ethyl-3,4,10-trihydroxy-13-{[(2R,4R,5S,6S)-5-hydroxy-4-methoxy-4,6-dimethyloxan-2-yl]oxy}-3,5,8,10,12,14-hexamethyl-15-oxo-1-oxa-6-azacyclopentadecan-6-yl]octyl}triphenylphosphonium iodide], which “% Confluence” value is on record?
Answer: Its value is 23.3%.

Question: For `CC[C@H]1OC(=O)[C@H](C)[C@@H](O[C@H]2C[C@@](C)(OC)[C@@H](O)[C@H](C)O2)[C@H](C)[C@@H](O[C@@H]2O[C@H](C)C[C@H](N(C)C)[C@H]2O)[C@](C)(O)C[C@@H](C)CN(CCCCCC[P+](c2ccccc2)(c2ccccc2)c2ccccc2)[C@H](C)[C@@H](O)[C@]1(C)O` [Example 8, {6-[(2R,3S,4R,5R,8R,10R,11R,12S,13S,14R)-11-{[(2S,3R,4S,6R)-4-(dimethylamino)-3-hydroxy-6-methyloxan-2-yl]oxy}-2-ethyl-3,4,10-trihydroxy-13-{[(2R,4R,5S,6S)-5-hydroxy-4-methoxy-4,6-dimethyloxan-2-yl]oxy}-3,5,8,10,12,14-hexamethyl-15-oxo-1-oxa-6-azacyclopentadecan-6-yl]hexyl}triphenylphosphonium iodide], which “% Confluence” value is on record?
Answer: The value was 109.9%.
